Results: patent publication US8017635B2, “Phenylalkyl substituted heteroaryl derivatives” (FMC Corporation, priority 2005, dated 2011)

System: tobacco budworm (Heliothis virescens [Fabricius])
Assay: surface-treated diet test against tobacco budworm
Assay type: in vivo
Conditions: 0.25 millimolar candidate insecticide on the surface of the diet, second instar larvae, five-day exposure; for Percent Growth Inhibition: inhibition of insect weight relative to untreated controls; for Percent Mortality: mortality compared to the total number of insects infested
Description: Candidate insecticides were evaluated for activity against the tobacco budworm (Heliothis virescens [Fabricius]) in a surface-treated diet test.
In this test one mL of molten (65-70° C.) wheat germ-based artificial diet was pipetted into each well of a four by six (24 well) multi-well plate (ID# 430345-15.5 mm diameter×17.6 mm deep; Corning Costar Corp., One Alewife Center, Cambridge, Mass. 02140). The diet was allowed to cool to ambient temperature before treatment with the candidate insecticide.
For a determination of insecticidal activity, solutions of the candidate insecticides were prepared for testing using a Packard 204DT Multiprobe® Robotic System (Packard Instrument Company, 800 Research Parkway, Meriden, Conn. 06450), in which the robot first diluted a standard 50 millimolar DMSO solution of the candidate insecticide with a 1:1 water/acetone solution (V/V) in a ratio of 1:7 stock solution to water/acetone. The robot subsequently pipetted 40 microliters of the so-prepared solution onto the surface of the diet in each of three wells in the 24 multi-well plate. The process was repeated with solutions of seven other candidate insecticides. Once treated, the contents of the multi-well plate were allowed to dry, leaving […] of candidate insecticide on the surface of the diet, or a concentration of 0.25 millimolar. Appropriate untreated controls containing only DMSO on the diet surface were also included in this test. […]
In each well of the test plate was placed a second instar tobacco budworm larvae, weighing approximately five milligrams. After the larvae were placed in each well, the plate was sealed with clear polyfilm adhesive tape. The tape over each well was perforated to ensure an adequate air supply. The plates were then held in a growth chamber at 25° C. and 60% relative humidity for five days (light 14 hours/day).
After the five-day exposure period insecticidal activity for each rate of application of candidate insecticide was assessed as percent inhibition of insect weight relative to the weight of insects from untreated controls, and percent mortality when compared to the total number of insects infested.
The test compounds of formula I are identified by numbers that correspond to those in Table 1.

| Compound | Percent Growth Inhibition [%] | Percent Mortality [%] |
| --- | --- | --- |
| 5-(3,3-dichloroprop-2-enyloxy)-1,3-dichloro-2-(2-(4-(4-chlorophenyl)-1,2,3-triazolyl)ethoxy)benzene [Compound 1-2] | 100 | 100 |
| FC(F)(F)c1ccc(-c2cn(CCOc3c(Cl)cc(OCC=C(Cl)Cl)cc3Cl)nn2)cc1 [Compound 1-1] | 100 | 100 |
| ClC(Cl)=CCOc1cc(Cl)c(OCCn2cc(-c3ccc(Cl)c(Cl)c3)nn2)c(Cl)c1 [Compound 1-3] | 100 | 100 |
| ClC(Cl)=CCOc1cc(Cl)c(OCCn2cc(Cc3ccccc3)nn2)c(Cl)c1 [Compound 1-4] | 100 | 100 |
| ClC(Cl)=CCOc1cc(Cl)c(OCCn2cc(CC3CCCC3)nn2)c(Cl)c1 [Compound 1-5] | 100 | 100 |
| CC(C)Cc1cn(CCOc2c(Cl)cc(OCC=C(Cl)Cl)cc2Cl)nn1 [Compound 1-6] | 49 | 0 |
| CC(C)(C)c1cn(CCOc2c(Cl)cc(OCC=C(Cl)Cl)cc2Cl)nn1 [Compound 1-7] | 100 | 100 |
| ClC(Cl)=CCOc1cc(Cl)c(OCCn2cc(-c3ccc(Cl)cc3Cl)nn2)c(Cl)c1 [Compound 1-8] | 33 | 0 |
| FC(F)(F)c1ccc(-c2cn(CCCOc3c(Cl)cc(OCC=C(Cl)Cl)cc3Cl)nn2)cc1 [Compound 1-9] | 100 | 100 |
| ClC(Cl)=CCOc1cc(Cl)c(OCCn2cc(-c3ccccc3Cl)nn2)c(Cl)c1 [Compound 1-11] | 100 | 100 |
| ClC(Cl)=CCOc1cc(Cl)c(OCCn2cc(-c3cccc(Cl)c3)nn2)c(Cl)c1 [Compound 1-12] | 100 | 100 |
| FC(F)(F)c1cccc(-c2cn(CCOc3c(Cl)cc(OCC=C(Cl)Cl)cc3Cl)nn2)c1 [Compound 1-14] | 100 | 100 |
| Fc1ccc(-c2cn(CCOc3c(Cl)cc(OCC=C(Cl)Cl)cc3Cl)nn2)c(F)c1 [Compound 1-15] | 100 | 100 |
| CN(C)c1ccc(-c2cn(CCOc3c(Cl)cc(OCC=C(Cl)Cl)cc3Cl)nn2)cc1 [Compound 1-16] | 91 | 67 |
| ClC(Cl)=CCOc1cc(Cl)c(OCCn2cc(-c3ccc(Oc4ccccc4)cc3)nn2)c(Cl)c1 [Compound 1-17] | 100 | 67 |
| FC(F)(F)c1ccc(-c2cn(CCOc3c(Cl)cc(OCC=C(Cl)Cl)cc3Cl)nn2)nc1 [Compound 1-18] | 100 | 100 |
| C[Si](C)(C)c1cn(CCCOc2c(Cl)cc(OCC=C(Cl)Cl)cc2Cl)nn1 [Compound 1-19] | 100 | 100 |
| FC(F)(F)c1ccc(OCc2cn(CCOc3c(Cl)cc(OCC=C(Cl)Cl)cc3Cl)nn2)cc1 [Compound 1-69] | 71 | 17 |
| ClC(Cl)=CCOc1cc(Cl)c(OCCn2cnc(-c3ccccc3)c2)c(Cl)c1 [Compound 2-1] | 100 | 100 |
| ClC(Cl)=CCOc1cc(Cl)c(OCCn2nnc(-c3ccccc3)n2)c(Cl)c1 [Compound 7-1] | 100 | 100 |
| FC(F)(F)c1ccc(-c2nnn(CCOc3c(Cl)cc(OCC=C(Cl)Cl)cc3Cl)n2)cc1 [Compound 7-2] | 100 | 100 |
| FC(F)(F)c1cccc(-c2nnn(CCOc3c(Cl)cc(OCC=C(Cl)Cl)cc3Cl)n2)c1 [Compound 7-54, 5-(3,3-dichloroprop-2-enyloxy)-1,3-dichloro-2(-2-(5-(3-trifluoromethylphenyl)(1,2,3,4-tetraazol-2-yl))ethoxy)benzene] | 100 | 100 |
| ClC(Cl)=CCOc1cc(Cl)c(OCCn2nnc(-c3ccccc3Cl)n2)c(Cl)c1 [Compound 7-55] | 100 | 100 |
| ClC(Cl)=CCOc1cc(Cl)c(OCCn2nnc(-c3cccc(Cl)c3)n2)c(Cl)c1 [Compound 7-56] | 100 | 100 |
| FC(F)(F)c1ccc(-c2n[nH]c(CCOc3c(Cl)cc(OCC=C(Cl)Cl)cc3Cl)n2)cc1 [Compound 8-2, 5-(3,3-dichloroprop-2-enyloxy)-1,3-dichloro-2-(2-(3-(4-trifluoromethylphenyl)(1,2,4-triazolyl))ethoxy)benzene] | 100 | 100 |
| FC(F)(F)c1cccc(-c2noc(COc3c(Cl)cc(OCC=C(Cl)Cl)cc3Cl)n2)c1 [Compound 14-54, 5-(3,3-dichloroprop-2-enyloxy)-1,3-dichloro-2((3-(3-trifluoromethylphenyl)(1,2,4-oxadiazol-5-yl))methoxy)benzene] | 100 | 100 |
